Source: the supplement of paper PMC12076712

Legend:
Test in all cases: pIC50, kinobeads binding competition
UniProt P28482 = molecular target: UniProt P28482
Summary of the method: (§1)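 Either living Jurkat cells (60 min at 37 °C, then lysis) or lysates (60 min at 4 °C) were treated with nine compound concentrations from a top of 30 μM, in 1:4 steps for cells and 1:5 steps for lysates. The lysates were from Jurkat cells or a 1:1:1:1 mix of HEK293, K-562, HepG2 and placenta. Kinobeads-bound proteins were digested and quantified by TMT10 LC-MS/MS. pIC50 was calculated by logistic dose-response fitting (R drc package) of fold changes relative to vehicle, in biological duplicates.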

MAPK14 = MAPK14 (UniProt Q16539)
Chain of MAPK14 (Q16539 whole entry): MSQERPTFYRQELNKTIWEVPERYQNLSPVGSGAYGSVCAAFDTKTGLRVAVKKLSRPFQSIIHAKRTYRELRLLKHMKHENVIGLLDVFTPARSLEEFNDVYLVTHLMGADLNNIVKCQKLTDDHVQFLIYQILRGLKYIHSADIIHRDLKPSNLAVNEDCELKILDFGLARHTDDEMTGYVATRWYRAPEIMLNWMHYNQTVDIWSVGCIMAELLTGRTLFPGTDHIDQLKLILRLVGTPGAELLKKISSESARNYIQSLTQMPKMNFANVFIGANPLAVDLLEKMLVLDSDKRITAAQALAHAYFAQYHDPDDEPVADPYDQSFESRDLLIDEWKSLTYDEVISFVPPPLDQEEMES
Summary of the method: as §1

UniProt Q9BUB5 = molecular target: UniProt Q9BUB5
Chain of UniProt Q9BUB5 (Q9BUB5 whole entry, looked up): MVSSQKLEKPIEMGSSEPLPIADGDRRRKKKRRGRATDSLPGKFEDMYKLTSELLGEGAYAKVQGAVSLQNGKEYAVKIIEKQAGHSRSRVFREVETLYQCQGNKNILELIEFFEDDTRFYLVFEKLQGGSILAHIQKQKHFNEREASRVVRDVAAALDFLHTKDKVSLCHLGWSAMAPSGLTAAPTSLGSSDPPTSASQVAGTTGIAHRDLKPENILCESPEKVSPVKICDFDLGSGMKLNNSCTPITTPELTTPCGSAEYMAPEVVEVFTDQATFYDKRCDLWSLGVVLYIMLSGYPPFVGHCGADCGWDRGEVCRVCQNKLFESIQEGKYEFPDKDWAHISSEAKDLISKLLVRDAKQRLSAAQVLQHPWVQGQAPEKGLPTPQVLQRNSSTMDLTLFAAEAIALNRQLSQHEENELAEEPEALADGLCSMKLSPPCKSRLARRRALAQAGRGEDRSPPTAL
Summary of the method: as §1

CDK2 = CDK2 (UniProt P24941)
Summary of the method: as §1

SLK = SLK (UniProt Q9H2G2)
Summary of the method: as §1

UniProt Q15418 = molecular target: UniProt Q15418
Chain of UniProt Q15418 (Q15418 whole entry): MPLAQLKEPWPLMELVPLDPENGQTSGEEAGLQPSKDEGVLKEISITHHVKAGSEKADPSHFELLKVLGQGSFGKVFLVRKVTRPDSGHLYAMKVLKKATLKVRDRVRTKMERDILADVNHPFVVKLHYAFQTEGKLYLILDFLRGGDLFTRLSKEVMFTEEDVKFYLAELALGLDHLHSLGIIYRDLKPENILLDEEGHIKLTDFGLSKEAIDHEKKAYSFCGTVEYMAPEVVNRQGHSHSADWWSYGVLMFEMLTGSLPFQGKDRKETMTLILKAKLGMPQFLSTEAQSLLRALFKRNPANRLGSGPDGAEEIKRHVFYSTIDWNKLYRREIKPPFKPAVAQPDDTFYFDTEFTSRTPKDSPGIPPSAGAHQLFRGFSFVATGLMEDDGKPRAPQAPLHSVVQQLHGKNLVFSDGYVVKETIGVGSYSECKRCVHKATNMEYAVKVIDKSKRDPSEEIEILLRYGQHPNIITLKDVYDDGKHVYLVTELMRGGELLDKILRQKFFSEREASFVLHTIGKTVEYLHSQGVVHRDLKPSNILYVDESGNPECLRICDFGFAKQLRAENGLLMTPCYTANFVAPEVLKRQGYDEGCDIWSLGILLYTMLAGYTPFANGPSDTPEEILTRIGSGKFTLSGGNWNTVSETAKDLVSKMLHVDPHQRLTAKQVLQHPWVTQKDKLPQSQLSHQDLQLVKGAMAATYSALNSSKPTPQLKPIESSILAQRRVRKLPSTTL
Summary of the method: as §1

PHKG2 = molecular target: T1, PHKG2 (UniProt P15735)
T1 sequence (whole entry): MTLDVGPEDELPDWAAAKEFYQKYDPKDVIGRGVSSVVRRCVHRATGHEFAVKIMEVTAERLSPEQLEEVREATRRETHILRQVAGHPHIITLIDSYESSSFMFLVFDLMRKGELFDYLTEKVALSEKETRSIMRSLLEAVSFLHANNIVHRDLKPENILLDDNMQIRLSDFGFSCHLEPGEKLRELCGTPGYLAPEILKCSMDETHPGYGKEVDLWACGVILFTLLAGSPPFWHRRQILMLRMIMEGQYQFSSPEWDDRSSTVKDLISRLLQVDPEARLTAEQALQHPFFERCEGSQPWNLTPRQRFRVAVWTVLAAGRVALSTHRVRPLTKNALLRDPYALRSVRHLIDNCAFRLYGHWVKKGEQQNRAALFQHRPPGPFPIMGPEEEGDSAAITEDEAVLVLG
Summary of the method: as §1

TESK2 = TESK2 (UniProt Q96S53)
Chain of TESK2 (Q96S53 whole entry, looked up): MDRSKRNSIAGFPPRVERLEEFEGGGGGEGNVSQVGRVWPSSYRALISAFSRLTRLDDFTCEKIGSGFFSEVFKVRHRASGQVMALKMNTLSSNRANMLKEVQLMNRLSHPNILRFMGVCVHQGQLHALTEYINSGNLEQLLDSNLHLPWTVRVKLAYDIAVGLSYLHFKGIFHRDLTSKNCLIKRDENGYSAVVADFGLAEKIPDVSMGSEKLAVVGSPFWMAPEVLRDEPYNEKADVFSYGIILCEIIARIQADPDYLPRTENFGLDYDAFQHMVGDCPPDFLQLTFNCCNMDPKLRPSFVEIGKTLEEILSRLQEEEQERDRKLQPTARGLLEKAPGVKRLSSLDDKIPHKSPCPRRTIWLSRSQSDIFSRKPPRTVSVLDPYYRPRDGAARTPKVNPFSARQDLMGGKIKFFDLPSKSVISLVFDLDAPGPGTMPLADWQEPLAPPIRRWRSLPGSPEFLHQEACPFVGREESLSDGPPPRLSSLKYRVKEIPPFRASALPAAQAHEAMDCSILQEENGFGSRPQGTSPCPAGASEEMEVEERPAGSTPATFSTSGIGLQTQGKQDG
Summary of the method: as §1

UniProt P27448 = molecular target: UniProt P27448
Summary of the method: as §1

EPHA3 = molecular target: T2, EPHA3 (UniProt P29320)
T2 sequence (whole entry): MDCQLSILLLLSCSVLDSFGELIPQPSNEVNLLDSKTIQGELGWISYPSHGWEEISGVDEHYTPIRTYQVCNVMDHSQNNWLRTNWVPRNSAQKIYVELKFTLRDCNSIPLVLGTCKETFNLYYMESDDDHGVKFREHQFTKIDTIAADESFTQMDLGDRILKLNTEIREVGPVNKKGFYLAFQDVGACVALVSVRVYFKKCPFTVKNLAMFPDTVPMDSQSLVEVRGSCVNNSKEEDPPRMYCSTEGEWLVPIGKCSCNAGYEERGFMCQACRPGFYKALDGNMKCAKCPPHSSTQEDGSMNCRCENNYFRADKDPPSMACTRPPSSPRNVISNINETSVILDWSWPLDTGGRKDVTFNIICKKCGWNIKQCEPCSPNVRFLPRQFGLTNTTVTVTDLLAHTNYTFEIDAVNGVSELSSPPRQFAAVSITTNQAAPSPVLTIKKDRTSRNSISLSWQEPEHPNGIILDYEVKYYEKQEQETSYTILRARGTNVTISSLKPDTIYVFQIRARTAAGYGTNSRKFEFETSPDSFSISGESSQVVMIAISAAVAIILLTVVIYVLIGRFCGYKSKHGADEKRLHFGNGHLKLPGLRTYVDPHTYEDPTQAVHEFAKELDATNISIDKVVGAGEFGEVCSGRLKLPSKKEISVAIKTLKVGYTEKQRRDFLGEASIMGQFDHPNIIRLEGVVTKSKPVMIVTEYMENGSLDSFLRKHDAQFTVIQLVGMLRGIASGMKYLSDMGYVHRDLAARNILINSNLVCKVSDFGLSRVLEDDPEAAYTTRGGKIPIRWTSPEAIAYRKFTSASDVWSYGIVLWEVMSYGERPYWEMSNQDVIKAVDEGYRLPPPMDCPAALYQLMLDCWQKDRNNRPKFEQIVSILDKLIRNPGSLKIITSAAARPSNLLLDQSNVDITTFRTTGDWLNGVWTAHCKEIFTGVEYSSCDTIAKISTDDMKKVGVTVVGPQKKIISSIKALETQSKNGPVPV
Summary of the method: as §1

WEE1 = WEE1 (UniProt P30291)
Chain of WEE1 (P30291 whole entry, looked up): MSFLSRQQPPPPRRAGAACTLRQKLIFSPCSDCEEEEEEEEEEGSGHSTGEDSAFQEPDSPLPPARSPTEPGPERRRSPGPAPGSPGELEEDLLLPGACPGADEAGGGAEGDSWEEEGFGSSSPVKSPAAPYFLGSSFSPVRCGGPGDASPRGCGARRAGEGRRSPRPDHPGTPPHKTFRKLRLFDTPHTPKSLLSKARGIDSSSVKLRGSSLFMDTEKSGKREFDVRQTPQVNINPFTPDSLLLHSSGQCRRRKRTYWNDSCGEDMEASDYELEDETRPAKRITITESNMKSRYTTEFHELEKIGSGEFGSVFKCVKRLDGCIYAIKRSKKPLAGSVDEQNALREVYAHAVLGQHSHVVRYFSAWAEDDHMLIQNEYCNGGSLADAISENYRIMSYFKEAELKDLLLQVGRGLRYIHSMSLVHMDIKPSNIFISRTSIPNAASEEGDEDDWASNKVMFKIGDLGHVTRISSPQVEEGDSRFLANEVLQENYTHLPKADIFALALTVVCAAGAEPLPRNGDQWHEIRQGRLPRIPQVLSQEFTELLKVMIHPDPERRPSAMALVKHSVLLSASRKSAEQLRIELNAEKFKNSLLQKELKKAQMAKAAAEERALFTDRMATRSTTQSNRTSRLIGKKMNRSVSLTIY
Summary of the method: as §1

UniProt Q9BQI3 = molecular target: UniProt Q9BQI3
Chain of UniProt Q9BQI3 (Q9BQI3 whole entry): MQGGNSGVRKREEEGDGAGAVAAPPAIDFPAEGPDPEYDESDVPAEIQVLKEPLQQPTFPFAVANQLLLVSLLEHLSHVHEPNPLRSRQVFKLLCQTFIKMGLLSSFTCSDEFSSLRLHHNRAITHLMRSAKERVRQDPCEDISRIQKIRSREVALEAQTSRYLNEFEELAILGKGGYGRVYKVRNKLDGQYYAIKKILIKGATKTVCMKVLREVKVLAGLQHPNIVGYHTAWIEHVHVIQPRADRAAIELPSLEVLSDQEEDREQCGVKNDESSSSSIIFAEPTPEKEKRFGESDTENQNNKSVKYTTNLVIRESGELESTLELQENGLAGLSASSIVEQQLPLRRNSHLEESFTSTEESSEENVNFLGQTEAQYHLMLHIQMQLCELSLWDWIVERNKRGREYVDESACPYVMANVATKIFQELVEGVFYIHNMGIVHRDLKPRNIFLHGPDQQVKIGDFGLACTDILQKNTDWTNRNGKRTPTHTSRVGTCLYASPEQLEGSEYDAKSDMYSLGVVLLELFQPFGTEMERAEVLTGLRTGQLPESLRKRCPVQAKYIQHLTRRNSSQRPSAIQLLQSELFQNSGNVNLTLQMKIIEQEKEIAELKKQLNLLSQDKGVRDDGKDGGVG
Summary of the method: as §1

UniProt Q5TCX8 = molecular target: UniProt Q5TCX8
Summary of the method: as §1

ICK = molecular target: T3, ICK (UniProt Q9UPZ9)
T3 sequence (whole entry): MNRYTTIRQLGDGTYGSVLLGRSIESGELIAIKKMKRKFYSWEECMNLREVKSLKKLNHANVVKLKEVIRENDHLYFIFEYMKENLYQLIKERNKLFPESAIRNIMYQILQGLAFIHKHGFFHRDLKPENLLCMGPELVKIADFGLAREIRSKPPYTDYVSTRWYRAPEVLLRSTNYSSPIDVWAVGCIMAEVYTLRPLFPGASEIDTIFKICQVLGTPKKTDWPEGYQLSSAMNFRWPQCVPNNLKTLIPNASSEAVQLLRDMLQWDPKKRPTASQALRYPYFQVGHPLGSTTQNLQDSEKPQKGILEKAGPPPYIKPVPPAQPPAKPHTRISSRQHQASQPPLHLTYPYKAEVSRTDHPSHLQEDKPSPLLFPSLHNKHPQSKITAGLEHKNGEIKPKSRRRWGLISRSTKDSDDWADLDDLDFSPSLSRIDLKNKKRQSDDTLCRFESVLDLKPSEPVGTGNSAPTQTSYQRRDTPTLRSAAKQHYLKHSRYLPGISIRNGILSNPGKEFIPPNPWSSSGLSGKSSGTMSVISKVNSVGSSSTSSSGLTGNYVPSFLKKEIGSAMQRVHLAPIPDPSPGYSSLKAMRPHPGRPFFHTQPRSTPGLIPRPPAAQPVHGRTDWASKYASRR
Summary of the method: as §1

HIPK3 = HIPK3 (UniProt Q9H422)
Chain of HIPK3 (Q9H422 whole entry, looked up): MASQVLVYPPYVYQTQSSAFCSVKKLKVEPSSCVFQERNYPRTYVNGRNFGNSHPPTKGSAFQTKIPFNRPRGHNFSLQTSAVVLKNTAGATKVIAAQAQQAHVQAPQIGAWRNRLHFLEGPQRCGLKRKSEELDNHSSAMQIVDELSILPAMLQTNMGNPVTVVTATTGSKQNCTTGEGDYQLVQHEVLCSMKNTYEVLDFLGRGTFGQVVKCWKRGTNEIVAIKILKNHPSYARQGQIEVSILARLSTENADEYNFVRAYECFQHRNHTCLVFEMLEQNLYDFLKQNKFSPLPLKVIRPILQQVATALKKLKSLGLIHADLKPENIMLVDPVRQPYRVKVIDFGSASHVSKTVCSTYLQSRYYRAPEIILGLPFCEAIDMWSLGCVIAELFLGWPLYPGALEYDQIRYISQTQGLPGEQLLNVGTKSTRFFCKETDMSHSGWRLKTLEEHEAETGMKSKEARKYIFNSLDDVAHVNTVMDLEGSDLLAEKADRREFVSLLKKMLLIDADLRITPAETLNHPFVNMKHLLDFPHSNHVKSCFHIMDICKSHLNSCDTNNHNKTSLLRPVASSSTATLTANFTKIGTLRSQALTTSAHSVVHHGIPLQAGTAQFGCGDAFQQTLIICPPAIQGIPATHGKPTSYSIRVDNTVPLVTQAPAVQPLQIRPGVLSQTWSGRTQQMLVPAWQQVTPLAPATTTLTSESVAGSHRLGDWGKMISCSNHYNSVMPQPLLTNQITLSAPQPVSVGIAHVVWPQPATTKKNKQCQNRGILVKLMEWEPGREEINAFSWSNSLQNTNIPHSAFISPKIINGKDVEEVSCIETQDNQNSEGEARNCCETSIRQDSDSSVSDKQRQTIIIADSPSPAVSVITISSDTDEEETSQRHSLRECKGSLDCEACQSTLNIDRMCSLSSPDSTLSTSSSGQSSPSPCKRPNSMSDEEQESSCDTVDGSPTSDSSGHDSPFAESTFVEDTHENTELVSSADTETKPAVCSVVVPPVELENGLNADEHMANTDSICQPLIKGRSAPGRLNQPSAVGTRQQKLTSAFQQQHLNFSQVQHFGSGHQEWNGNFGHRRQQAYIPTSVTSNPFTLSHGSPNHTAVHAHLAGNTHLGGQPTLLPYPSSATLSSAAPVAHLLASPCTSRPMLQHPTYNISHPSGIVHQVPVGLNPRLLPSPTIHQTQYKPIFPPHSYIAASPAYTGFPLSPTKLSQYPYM
Summary of the method: as §1

Chain of UniProt P28482 (P28482 whole entry): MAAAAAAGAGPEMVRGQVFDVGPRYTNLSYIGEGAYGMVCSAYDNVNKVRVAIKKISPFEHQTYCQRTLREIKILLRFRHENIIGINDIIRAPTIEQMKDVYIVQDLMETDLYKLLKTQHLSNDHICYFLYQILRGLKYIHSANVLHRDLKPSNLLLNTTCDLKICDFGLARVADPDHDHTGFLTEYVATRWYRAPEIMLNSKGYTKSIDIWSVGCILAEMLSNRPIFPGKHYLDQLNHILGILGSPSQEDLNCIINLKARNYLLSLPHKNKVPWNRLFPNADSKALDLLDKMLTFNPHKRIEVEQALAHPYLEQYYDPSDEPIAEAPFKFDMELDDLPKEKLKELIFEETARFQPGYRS

C#CCNC(=O)c1cc(Nc2cc(C3CC3)[nH]n2)nc(N2CCN(Cc3ccc(S(=O)(=O)F)cc3)CC2)n1
pIC50 (UniProt P28482; cell material: Jurkat cells): 5.48 | pIC50 (UniProt P28482; cell material: Jurkat lysate): < 4.52 | pIC50 (UniProt P28482; cell material: Lysate mix): < 4.52 | pIC50 (MAPK14; cell material: Jurkat cells): < 4.52 | pIC50 (MAPK14; cell material: Jurkat lysate): < 4.52 | pIC50 (MAPK14; cell material: Lysate mix): < 4.52 | pIC50 (UniProt Q9BUB5; cell material: Jurkat cells): 5.31 | pIC50 (UniProt Q9BUB5; cell material: Jurkat lysate): < 4.52 | pIC50 (UniProt Q9BUB5; cell material: Lysate mix): < 4.52 | pIC50 (CDK2; cell material: Jurkat cells): 6.8 | pIC50 (CDK2; cell material: Jurkat lysate): 6.16 | pIC50 (CDK2; cell material: Lysate mix): 6.7 | pIC50 (SLK; cell material: Jurkat cells): 5.46 | pIC50 (SLK; cell material: Jurkat lysate): < 4.52 | pIC50 (SLK; cell material: Lysate mix): < 4.52 | pIC50 (UniProt Q15418; cell material: Jurkat cells): 5.98 | pIC50 (UniProt Q15418; cell material: Jurkat lysate): < 4.52 | pIC50 (UniProt Q15418; cell material: Lysate mix): 5.49 | pIC50 (PHKG2; cell material: Jurkat cells): 5.16 | pIC50 (PHKG2; cell material: Jurkat lysate): < 4.52 | pIC50 (PHKG2; cell material: Lysate mix): < 4.52 | pIC50 (TESK2; cell material: Jurkat cells): < 4.52 | pIC50 (TESK2; cell material: Jurkat lysate): < 4.52 | pIC50 (TESK2; cell material: Lysate mix): < 4.52 | pIC50 (UniProt P27448; cell material: Jurkat cells): 5.81 | pIC50 (UniProt P27448; cell material: Jurkat lysate): < 4.52 | pIC50 (UniProt P27448; cell material: Lysate mix): < 4.52 | pIC50 (EPHA3; cell material: Jurkat lysate): < 4.52 | pIC50 (EPHA3; cell material: Lysate mix): < 4.52 | pIC50 (WEE1; cell material: Jurkat cells): 5.62 | pIC50 (WEE1; cell material: Jurkat lysate): < 4.52 | pIC50 (WEE1; cell material: Lysate mix): < 4.52 | pIC50 (UniProt Q9BQI3; cell material: Jurkat cells): 5.34 | pIC50 (UniProt Q9BQI3; cell material: Jurkat lysate): < 4.52 | pIC50 (UniProt Q5TCX8; cell material: Jurkat cells): 5.78 | pIC50 (UniProt Q5TCX8; cell material: Lysate mix): 4.8 | pIC50 (ICK; cell material: Jurkat lysate): 6.22 | pIC50 (ICK; cell material: Lysate mix): 6.53 | pIC50 (HIPK3; cell material: Jurkat cells): 5.92 | pIC50 (HIPK3; cell material: Jurkat lysate): 4.89 | pIC50 (HIPK3; cell material: Lysate mix): 5.76

C#CCNC(=O)c1cc(Nc2cc(C)[nH]n2)nc(N2CCN(Cc3ccc(S(=O)(=O)F)cc3)CC2)n1
pIC50 (UniProt P28482; cell material: Lysate mix): < 4.52 | pIC50 (MAPK14; cell material: Lysate mix): < 4.52 | pIC50 (UniProt Q9BUB5; cell material: Lysate mix): < 4.52 | pIC50 (CDK2; cell material: Lysate mix): 6.2 | pIC50 (SLK; cell material: Lysate mix): < 4.52 | pIC50 (UniProt Q15418; cell material: Lysate mix): 5.27 | pIC50 (PHKG2; cell material: Lysate mix): < 4.52 | pIC50 (TESK2; cell material: Lysate mix): < 4.52 | pIC50 (UniProt P27448; cell material: Lysate mix): < 4.52 | pIC50 (EPHA3; cell material: Lysate mix): < 4.52 | pIC50 (WEE1; cell material: Lysate mix): < 4.52 | pIC50 (UniProt Q9BQI3; cell material: Lysate mix): < 4.52 | pIC50 (UniProt Q5TCX8; cell material: Lysate mix): < 4.52 | pIC50 (ICK; cell material: Lysate mix): 5.43 | pIC50 (HIPK3; cell material: Lysate mix): 4.76

Cc1cc(Nc2cc(C(=O)NCCNC(=O)OC3CC/C=C/CCC3)nc(N3CCN(Cc4ccc(S(=O)(=O)F)cc4)CC3)n2)n[nH]1 (stereo unspecified)
pIC50 (UniProt P28482; cell material: Lysate mix): < 4.52 | pIC50 (MAPK14; cell material: Lysate mix): < 4.52 | pIC50 (UniProt Q9BUB5; cell material: Lysate mix): < 4.52 | pIC50 (CDK2; cell material: Lysate mix): 4.74 | pIC50 (SLK; cell material: Lysate mix): < 4.52 | pIC50 (UniProt Q15418; cell material: Lysate mix): < 4.52 | pIC50 (PHKG2; cell material: Lysate mix): < 4.52 | pIC50 (TESK2; cell material: Lysate mix): < 4.52 | pIC50 (UniProt P27448; cell material: Lysate mix): < 4.52 | pIC50 (EPHA3; cell material: Lysate mix): < 4.52 | pIC50 (WEE1; cell material: Lysate mix): < 4.52 | pIC50 (UniProt Q9BQI3; cell material: Lysate mix): < 4.52 | pIC50 (UniProt Q5TCX8; cell material: Lysate mix): < 4.52 | pIC50 (ICK; cell material: Lysate mix): < 4.52 | pIC50 (HIPK3; cell material: Lysate mix): < 4.52
